Each structure is given as a SMILES string. Like-named read-outs stand apart in the source and are kept apart here.

What is called IC50 is the midpoint of a concentration-inhibition curve.

The target in the assay is human recombinant GPR65 (Homo sapiens, UniProt Q8IYL9). Briefly: Human GPR65 cAMP HTRF antagonist assay. The assay is classed as cell-based. The gist of the method:
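Antagonism measured as suppression of the cAMP rise when pH is dropped to 7.2 (control wells pH 7.9) in 1321N1 cells stably carrying human GPR65. Cells in KRH with 1 mM IBMX and 200 μM EDTA saw compound 30 min, then acid stimulation 30 min; HTRF cAMP detection, normalised, 4-parameter logistic IC50.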
On the technique in general: In TR-FRET formats the signal depends on donor and acceptor labels being close together.

Setting [1] is: 1321N1-hrGPR65 cells, cAMP HTRF, assay pH 7.2, read-out: hGPR65 IC50 (Activity of selected compounds according to the invention).

human recombinant GPR65, sequence (Q8IYL9 whole entry): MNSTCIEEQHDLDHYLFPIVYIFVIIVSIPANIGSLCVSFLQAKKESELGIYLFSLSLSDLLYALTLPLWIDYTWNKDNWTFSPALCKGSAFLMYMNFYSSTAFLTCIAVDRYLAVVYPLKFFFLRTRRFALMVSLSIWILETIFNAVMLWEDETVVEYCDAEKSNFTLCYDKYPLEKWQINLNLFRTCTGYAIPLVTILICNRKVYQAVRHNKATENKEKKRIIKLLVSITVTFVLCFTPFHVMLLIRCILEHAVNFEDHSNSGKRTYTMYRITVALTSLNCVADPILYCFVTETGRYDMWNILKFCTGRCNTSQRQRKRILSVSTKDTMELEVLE

`O=C1NCCc2cc(-c3cc(F)c(NC(=O)N4[C@H]5CC[C@@H]4c4n[nH]c(=O)cc4C5)cc3Cl)ccc21` [Compound 151, (6S,9R)-N-(5-Chloro-2-fluoro-4-(1-oxo-1,2,3,4-tetrahydroisoquinolin-6-yl)phenyl)-3-oxo-3,5,6,7,8,9-hexahydro-2H-6,9-epiminocyclohepta[c]pyridazine-10-carboxamide]: under setting [1], the IC50 was greater than 5000 nM.

In the case of `Cn1ncc2ccc(-c3cc(F)c(NC(=O)N4[C@H]5CC[C@@H]4c4n[nH]c(=O)cc4C5)cc3Cl)cc21` [Compound 152, (6S,9R)-N-(5-Chloro-2-fluoro-4-(1-methyl-1H-indazol-6-yl)phenyl)-3-oxo-3,5,6,7,8,9-hexahydro-2H-6,9-epiminocyclohepta[c]pyridazine-10-carboxamide], the IC50 is less than 500 nM.

In the case of `O=C1Cc2ccc(-c3cc(F)c(NC(=O)N4[C@H]5CC[C@@H]4c4n[nH]c(=O)cc4C5)cc3Cl)cc2N1` [Compound 153, (6S,9R)-N-(5-Chloro-2-fluoro-4-(2-oxoindolin-6-yl)phenyl)-3-oxo-3,5,6,7,8,9-hexahydro-2H-6,9-epiminocyclohepta[c]pyridazine-10-carboxamide], the IC50 is less than 500 nM.

Turning to `CNc1cnc(F)c2c1[C@H]1CC[C@@H](C2)N1C(=O)Nc1cc(Cl)c(Cl)cc1F` [Compound 159, (5R,8S)—N-(4,5-dichloro-2-fluorophenyl)-1-fluoro-4-(methylamino)-6,7,8,9-tetrahydro-5H-5,8-epiminocyclohepta[c]pyridine-10-carboxamide], the IC50 was less than 500 nM.

With `N#Cc1cnc(F)c2c1[C@H]1CC[C@@H](C2)N1C(=O)Nc1cc(Cl)c(Cl)cc1F` [Compound 160, (5R,8S)-4-Cyano-N-(4,5-dichloro-2-fluorophenyl)-1-fluoro-6,7,8,9-tetrahydro-5H-5,8-epiminocyclohepta[c]pyridine-10-carboxamide], the IC50 under setting [1] lay in the range of 500 to 5000 nM.

In the case of `CNCCCOc1cnc(F)c2c1[C@H]1CC[C@@H](C2)N1C(=O)Nc1cc(Cl)c(C(F)(F)F)cc1F` [Compound 161, (5R,8S)—N-(5-Chloro-2-fluoro-4-(trifluoromethyl)phenyl)-1-fluoro-4-(3-(methylamino)propoxy)-6,7,8,9-tetrahydro-5H-5,8-epiminocyclohepta[c]pyridine-10-carboxamide], the IC50 under setting [1] was 500 to 5000 nM.

For `O=C(Nc1cc(Cl)c(-c2ccc3nonc3c2)cc1F)N1[C@H]2CC[C@@H]1c1ccnc(F)c1C2` [Compound 162, (5R,8S)-N-(4-(Benzo[c][1,2,5]oxadiazol-5-yl)-5-chloro-2-fluorophenyl)-1-fluoro-6,7,8,9-tetrahydro-5H-5,8-epiminocyclohepta[c]pyridine-10-carboxamide], the IC50 is less than 500 nM.

Regarding `CN1C(=O)Cc2ccc(-c3cc(F)c(NC(=O)N4[C@H]5CC[C@@H]4c4n[nH]c(=O)cc4C5)cc3Cl)cc21` [Compound 163, (6S,9R)-N-(5-Chloro-2-fluoro-4-(1-methyl-2-oxoindolin-6-yl)phenyl)-3-oxo-3,5,6,7,8,9-hexahydro-2H-6,9-epiminocyclohepta[c]pyridazine-10-carboxamide], the IC50 is less than 500 nM.

Regarding `Cn1ncc2cc(-c3cc(F)c(NC(=O)N4[C@H]5CC[C@@H]4c4n[nH]c(=O)cc4C5)cc3Cl)ccc21` [Compound 164, (6S,9R)-N-(5-Chloro-2-fluoro-4-(1-methyl-1H-indazol-5-yl)phenyl)-3-oxo-3,5,6,7,8,9-hexahydro-2H-6,9-epiminocyclohepta[c]pyridazine-10-carboxamide], the IC50 was less than 500 nM.

`O=C(Nc1cc(Cl)c(-c2cnc3nonc3c2)cc1F)N1[C@H]2CC[C@@H]1c1n[nH]c(=O)cc1C2` [Compound 165, (6S,9R)-N-(4-([1,2,5]Oxadiazolo[3,4-b]pyridine-6-yl)-5-chloro-2-fluorophenyl)-3-oxo-3,5,6,7,8,9-hexahydro-2H-6,9-epiminocyclohepta[c]pyridazine-10-carboxamide]: the IC50 was less than 500 nM.

Turning to `O=C(Nc1cc(-c2ccccc2)on1)N1[C@H]2CC[C@@H]1c1n[nH]c(=O)cc1C2` [Compound 166, (6S,9R)-3-Oxo-N-(5-phenylisoxazol-3-yl)-3,5,6,7,8,9-hexahydro-2H-6,9-epiminocyclohepta[c]pyridazine-10-carboxamide], the IC50 was less than 500 nM.

Consider `O=C(Nc1cc(Cl)c(-c2ccc3nonc3c2)cc1F)N1[C@H]2CC[C@@H]1c1c[nH]c(=O)cc1C2` [Compound 167, (6S,9R)-N-(4-(Benzo[c][1,2,5]oxadiazol-5-yl)-5-chloro-2-fluorophenyl)-3-oxo-3,5,6,7,8,9-hexahydro-2H-6,9-epiminocyclohepta[c]pyridine-10-carboxamide], for which the IC50 is less than 500 nM.

On to `O=C(Nc1cc(Cl)c(-c2ccc3nsnc3c2)cc1F)N1[C@H]2CC[C@@H]1c1n[nH]c(=O)cc1C2` [Compound 168, (6S,9R)-N-(4-(Benzo[c][1,2,5]thiadiazol-5-yl)-5-chloro-2-fluorophenyl)-3-oxo-3,5,6,7,8,9-hexahydro-2H-6,9-epiminocyclohepta[c]pyridazine-10-carboxamide], for which the IC50 is less than 500 nM.

As for `O=C(Nc1cc(Cl)c(-c2ccc(F)nc2)cc1F)N1[C@H]2CC[C@@H]1c1ccnc(F)c1C2` [Compound 169, (5R,8S)-N-(5-Chloro-2-fluoro-4-(6-fluoropyridin-3-yl)phenyl)-1-fluoro-6,7,8,9-tetrahydro-5H-5,8-epiminocyclohepta[c]pyridine-10-carboxamide], the IC50 was less than 500 nM.

For the molecule `Cc1nc2ccc(-c3cc(F)c(NC(=O)N4[C@H]5CC[C@@H]4c4n[nH]c(=O)cc4C5)cc3Cl)cc2o1` [Compound 170, (6S,9R)-N-(5-Chloro-2-fluoro-4-(2-methylbenzo[d]oxazol-6-yl)phenyl)-3-oxo-3,5,6,7,8,9-hexahydro-2H-6,9-epiminocyclohepta[c]pyridazine-10-carboxamide], the IC50 is less than 500 nM.

As for `COc1ccc(-c2cc(F)c(NC(=O)N3[C@H]4CC[C@@H]3c3n[nH]c(=O)cc3C4)cc2Cl)cn1` [Compound 171, (6S,9R)-N-(5-Chloro-2-fluoro-4-(6-methoxypyridin-3-yl)phenyl)-3-oxo-3,5,6,7,8,9-hexahydro-2H-6,9-epiminocyclohepta[c]pyridazine-10-carboxamide], the IC50 was less than 500 nM.

Turning to `O=C(Nc1cc(Cl)c(-c2ccc(F)nc2)cc1F)N1[C@H]2CC[C@@H]1c1c[nH]c(=O)cc1C2` [Compound 172, (6S,9R)-N-(5-Chloro-2-fluoro-4-(6-fluoropyridin-3-yl)phenyl)-3-oxo-3,5,6,7,8,9-hexahydro-2H-6,9-epiminocyclohepta[c]pyridine-10-carboxamide], the IC50 is less than 500 nM.

Consider `O=C(Nc1cc(Cl)c(-c2ccncc2)cc1F)N1[C@H]2CC[C@@H]1c1n[nH]c(=O)cc1C2` [Compound 173, (6S,9R)-N-(5-Chloro-2-fluoro-4-(pyridin-4-yl)phenyl)-3-oxo-3,5,6,7,8,9-hexahydro-2H-6,9-epiminocyclohepta[c]pyridazine-10-carboxamide], for which the IC50 is less than 500 nM.

For `O=C(Nc1cc(Cl)c(-c2ccnnc2)cc1F)N1[C@H]2CC[C@@H]1c1n[nH]c(=O)cc1C2` [Compound 174, (6S,9R)-N-(5-Chloro-2-fluoro-4-(pyridazin-4-yl)phenyl)-3-oxo-3,5,6,7,8,9-hexahydro-2H-6,9-epiminocyclohepta[c]pyridazine-10-carboxamide], the IC50 under setting [1] is greater than 5000 nM.

Turning to `CN1CCc2cc(-c3cc(F)c(NC(=O)N4[C@H]5CC[C@@H]4c4n[nH]c(=O)cc4C5)cc3Cl)ccc2C1=O` [Compound 175, (6S,9R)-N-(5-Chloro-2-fluoro-4-(2-methyl-1-oxo-1,2,3,4-tetrahydroisoquinolin-6-yl)phenyl)-3-oxo-3,5,6,7,8,9-hexahydro-2H-6,9-epiminocyclohepta[c]pyridazine-10-carboxamide], the IC50 is less than 500 nM.

`O=C(Nc1cc(Cl)c(-c2ccc3nsnc3c2)cc1F)N1[C@H]2CC[C@@H]1c1c[nH]c(=O)cc1C2` [Compound 176, (6S,9R)-N-(4-(benzo[c][1,2,5]thiadiazol-5-yl)-5-chloro-2-fluorophenyl)-3-oxo-3,5,6,7,8,9-hexahydro-2H-6,9-epiminocyclohepta[c]pyridine-10-carboxamide]: the IC50 was less than 500 nM.

Consider `O=C(Nc1cc(Cl)c(-c2ccc3nsnc3c2)cc1F)N1[C@H]2CC[C@@H]1c1ccnc(F)c1C2` [Compound 177, (5R,8S)-N-(4-(benzo[c][1,2,5]thiadiazol-5-yl)-5-chloro-2-fluorophenyl)-1-fluoro-6,7,8,9-tetrahydro-5H-5,8-epiminocyclohepta[c]pyridine-10-carboxamide], for which the IC50 was less than 500 nM.

In the case of `O=C(Nc1cc(Cl)c(-c2cnc(F)nc2)cc1F)N1[C@H]2CC[C@@H]1c1n[nH]c(=O)cc1C2` [Compound 178, (6S,9R)-N-(5-Chloro-2-fluoro-4-(2-fluoropyrimidin-5-yl)phenyl)-3-oxo-3,5,6,7,8,9-hexahydro-2H-6,9-epiminocyclohepta[c]pyridazine-10-carboxamide], the IC50 is less than 500 nM.

`N#Cc1cnccc1-c1cc(F)c(NC(=O)N2[C@H]3CC[C@@H]2c2n[nH]c(=O)cc2C3)cc1Cl` [Compound 179, (6S,9R)-N-(5-Chloro-4-(3-cyanopyridin-4-yl)-2-fluorophenyl)-3-oxo-3,5,6,7,8,9-hexahydro-2H-6,9-epiminocyclohepta[c]pyridazine-10-carboxamide]: the IC50 under setting [1] lay in the range of 500 to 5000 nM.

As to `CS(=O)(=O)c1ccc(-c2cc(F)c(NC(=O)N3[C@H]4CC[C@@H]3c3n[nH]c(=O)cc3C4)cc2Cl)cn1` [Compound 180, (6S,9R)-N-(5-Chloro-2-fluoro-4-(6-(methylsulfonyl)pyridin-3-yl)phenyl)-3-oxo-3,5,6,7,8,9-hexahydro-2H-6,9-epiminocyclohepta[c]pyridazine-10-carboxamide], the IC50 under setting [1] was 500 to 5000 nM.

Take `O=C(Nc1cc(Cl)c(-c2ncco2)cc1F)N1[C@H]2CC[C@@H]1c1n[nH]c(=O)cc1C2` [Compound 181, (6S,9R)-N-(5-Chloro-2-fluoro-4-(oxazol-2-yl)phenyl)-3-oxo-3,5,6,7,8,9-hexahydro-2H-6,9-epiminocyclohepta[c]pyridazine-10-carboxamide]: the IC50 lay within 500 to 5000 nM.
